Publication PMC2673211, “Nitric oxide activates ATP-sensitive potassium channels in mammalian sensory neurons: action by direct S-nitrosylation” (Molecular Pain, 2009)

Legend:
Format in all cases: biochemical
[1] = target: T1, SUR1-C717S/Kir6.2 channels (Rattus norvegicus, UniProt P70673+Q09429, C717S); test: Inside-out patch recording of mutated channels expressed in COS7 cells
T1 construct: A full-length Kir cDNA and a full-length SUR cDNA were subcloned into the mammalian expression vector; expressed in transfected cells; host or cells: COS7 cells, pcDNA3.1(-) vectors, GFP cDNA co-transfected as a separate reporter
T1 sequence (Q09429 whole entry C717S): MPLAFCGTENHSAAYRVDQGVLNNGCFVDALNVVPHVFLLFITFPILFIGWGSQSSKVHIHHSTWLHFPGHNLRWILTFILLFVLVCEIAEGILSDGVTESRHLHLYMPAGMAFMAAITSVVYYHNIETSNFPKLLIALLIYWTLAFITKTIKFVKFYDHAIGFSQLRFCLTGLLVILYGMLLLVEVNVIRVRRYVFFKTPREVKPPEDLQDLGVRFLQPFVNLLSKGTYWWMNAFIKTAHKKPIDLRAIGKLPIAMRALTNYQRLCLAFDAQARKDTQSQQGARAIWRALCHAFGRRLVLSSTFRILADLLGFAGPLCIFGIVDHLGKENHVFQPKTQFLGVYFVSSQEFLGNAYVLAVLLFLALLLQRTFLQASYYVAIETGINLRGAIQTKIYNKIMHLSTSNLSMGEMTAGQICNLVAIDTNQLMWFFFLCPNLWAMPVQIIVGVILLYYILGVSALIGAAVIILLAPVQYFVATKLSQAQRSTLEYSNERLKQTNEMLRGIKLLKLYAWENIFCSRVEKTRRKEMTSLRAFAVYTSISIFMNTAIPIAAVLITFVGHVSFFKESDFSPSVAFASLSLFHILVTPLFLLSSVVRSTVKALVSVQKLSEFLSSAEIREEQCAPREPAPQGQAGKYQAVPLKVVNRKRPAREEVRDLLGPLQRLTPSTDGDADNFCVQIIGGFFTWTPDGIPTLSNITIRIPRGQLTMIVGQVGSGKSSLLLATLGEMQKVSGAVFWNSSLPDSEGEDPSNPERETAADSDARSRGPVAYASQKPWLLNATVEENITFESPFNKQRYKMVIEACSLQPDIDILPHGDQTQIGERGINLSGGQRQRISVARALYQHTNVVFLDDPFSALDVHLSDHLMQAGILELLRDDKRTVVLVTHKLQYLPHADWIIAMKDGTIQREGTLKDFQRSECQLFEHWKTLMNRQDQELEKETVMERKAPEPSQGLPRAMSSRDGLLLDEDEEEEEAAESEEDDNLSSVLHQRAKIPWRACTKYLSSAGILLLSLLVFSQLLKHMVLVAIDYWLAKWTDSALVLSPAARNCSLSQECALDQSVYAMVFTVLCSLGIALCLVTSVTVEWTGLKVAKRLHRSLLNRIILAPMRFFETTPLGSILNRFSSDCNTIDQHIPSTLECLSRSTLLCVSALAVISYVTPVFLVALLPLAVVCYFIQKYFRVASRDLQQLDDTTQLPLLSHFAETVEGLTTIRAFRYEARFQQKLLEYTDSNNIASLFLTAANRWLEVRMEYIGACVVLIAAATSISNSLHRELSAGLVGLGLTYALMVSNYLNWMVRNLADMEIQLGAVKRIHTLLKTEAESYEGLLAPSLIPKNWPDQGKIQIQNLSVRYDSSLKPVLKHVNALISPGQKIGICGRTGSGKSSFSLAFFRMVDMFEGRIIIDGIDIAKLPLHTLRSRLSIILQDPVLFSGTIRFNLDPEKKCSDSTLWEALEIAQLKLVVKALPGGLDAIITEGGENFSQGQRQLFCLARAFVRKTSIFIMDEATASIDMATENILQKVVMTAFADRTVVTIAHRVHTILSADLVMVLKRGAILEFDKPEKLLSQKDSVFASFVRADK
T1 sequence (P70673 whole entry): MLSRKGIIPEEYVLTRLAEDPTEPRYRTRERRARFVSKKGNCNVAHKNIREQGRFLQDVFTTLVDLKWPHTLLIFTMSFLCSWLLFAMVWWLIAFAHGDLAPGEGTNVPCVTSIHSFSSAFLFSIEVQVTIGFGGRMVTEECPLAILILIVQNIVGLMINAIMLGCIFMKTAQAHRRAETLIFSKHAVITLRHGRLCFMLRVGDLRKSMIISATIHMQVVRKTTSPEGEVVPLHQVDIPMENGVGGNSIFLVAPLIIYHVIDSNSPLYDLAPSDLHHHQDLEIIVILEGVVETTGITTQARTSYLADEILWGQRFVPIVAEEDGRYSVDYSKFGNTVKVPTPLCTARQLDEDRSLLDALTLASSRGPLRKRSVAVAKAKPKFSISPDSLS
Procedure: (§1) KATP channel-deficient COS7 cells were plated at a density of 3 × 10^5/dish (35 mm in diameter) and cultured in Dulbecco's modified Eagle's medium supplemented with 10% fetal calf serum. Rat Kir6.2 (GenBank X97041) and rat SUR1 (GenBank X97279) cDNAs were used for expression study. A truncated form of Kir6.2 lacking the last 36 amino acids at the C-terminus was obtained by polymerase chain reaction amplification. Polymerase chain reaction products were cloned into the pCR3.1 vector by using the TA cloning system (Invitrogen Corp., Carlsbad, CA, USA) and then cloned into the pcDNA3.1 (-) vector (Invitrogen Corp.) for mammalian expression. Point mutation of cysteine at position 717 (C717), C806, C1378, C1446, and C1491 within SUR1 to serine (C717S, C806S, C1378S, C1446S, and C1491S) was performed by using the Site-Directed Mutagenesis system (Invitrogen Corp.). All cDNA products were sequenced by using the BigDye terminator cycle sequencing kit and an ABI PRISM 377 DNA sequencer (Applied Biosystems, Foster City, CA) to confirm the sequence. A full-length Kir cDNA and a full-length SUR cDNA were subcloned into the mammalian expression vector pcDNA3.1 (-). For electrophysiological recordings, either wild-type or mutated pcDNA3.1 (-) Kir6.2 alone (1 μg), or pcDNA3.1 (-) Kir6.2 (1 μg) plus pcDNA3.1 (-) SUR1 (3 μg) were transfected into COS7 cells with green fluorescent protein cDNA as a reporter gene by using lipofectamine and Opti-MEN 1 reagents (Life Technologies Inc., Rockville, MD) according to the manufacturer's instructions. After transfection, cells were cultured at 37°C with 95% air and 5% CO2 for 48–72 h before being subjected to electrophysiological recordings.
(§2) We recorded current passing through single channels in inside-out or cell-attached patch configurations. In cell-attached patches, both bath and pipette (extracellular) solutions were composed of the following: 140 mM KCl, 10 mM HEPES, 5.5 mM dextrose, and 1 mM EGTA. In inside-out patches, the bath (intracellular) solution contained 140 mM KCl, 1.2 mM MgCl2, 10 mM HEPES, 1.5 mM EGTA and 5.5 mM dextrose. The pipette (extracellular) solution was of the same composition as that used in cell-attached recordings. The pH of all solutions was adjusted to 7.4 with KOH. Osmolality was adjusted approximately to 300 mOsm/l by adding sucrose if necessary. We pulled patch micropipettes from borosilicate glass capillaries using a Flaming/Brown micropipette puller, model P-97 (Sutter, San Rafael, CA) and flame polished them with a microforge polisher (Narishige, Tokyo, Japan) prior to use. Their resistance ranged between 3 and 6 MΩ when filled with the internal solution, and placed into the recording solutions.
(§3) We recorded single channel currents at room temperature (20–25°C) using an Axon CNS Multiclamp 700B amplifier, digitized them using an analog-to-digital converter (Axon CNS DigiData 1440A; Axon Instruments, Foster, CA), and stored them into a PC. Sampling frequency of single-channel data was 5 KHz with a low-pass filter (1 KHz). We used pClamp version 10.2 software (Axon Instruments) for data acquisition and analysis. […] Channel open probability (Po) was determined from the ratios of the area under the peaks in the amplitude histograms fitted by a Gaussian distribution. We calculated channel activity as NPo (where N is the number of observed channels in the patch) from data samples of either 30 s (in inside-out recordings), or 60 s (in cell-attached recordings), in the steady state. […]

Kir6.2ΔC36 channels = target: T2, Kir6.2ΔC36 channels (Rattus norvegicus, UniProt P70673); test: Inside-out patch recording of truncated Kir6.2 channels expressed in COS7 cells; details: SNAP 1 mM in the presence of 1 mM [ATP]i; n = 6
T2 construct: A truncated form of Kir6.2 lacking the last 36 amino acids at the C-terminus; expressed in transfected cells; host or cells: COS7 cells, pcDNA3.1(-) Kir6.2 alone, GFP cDNA co-transfected as a separate reporter
T2 sequence (P70673 1-354 limits assumed): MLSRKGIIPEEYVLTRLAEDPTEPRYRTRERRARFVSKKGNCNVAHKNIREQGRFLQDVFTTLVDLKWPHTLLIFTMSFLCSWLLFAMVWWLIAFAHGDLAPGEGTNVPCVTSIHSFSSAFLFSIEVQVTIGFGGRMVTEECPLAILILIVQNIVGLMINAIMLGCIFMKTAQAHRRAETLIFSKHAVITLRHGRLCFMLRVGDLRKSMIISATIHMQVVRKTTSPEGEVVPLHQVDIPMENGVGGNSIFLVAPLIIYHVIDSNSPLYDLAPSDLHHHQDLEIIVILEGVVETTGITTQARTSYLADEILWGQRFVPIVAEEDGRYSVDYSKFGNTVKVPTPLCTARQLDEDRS
Procedure: KATP channel-deficient COS7 cells were plated at a density of 3 × 10^5/dish (35 mm in diameter) and cultured in Dulbecco's modified Eagle's medium supplemented with 10% fetal calf serum. Rat Kir6.2 (GenBank X97041) and rat SUR1 (GenBank X97279) cDNAs were used for expression study. A truncated form of Kir6.2 lacking the last 36 amino acids at the C-terminus was obtained by polymerase chain reaction amplification. Polymerase chain reaction products were cloned into the pCR3.1 vector by using the TA cloning system (Invitrogen Corp., Carlsbad, CA, USA) and then cloned into the pcDNA3.1 (-) vector (Invitrogen Corp.) for mammalian expression. […]
We recorded current passing through single channels in inside-out or cell-attached patch configurations. […]
as §3, with “PC.” for “PC. Sampling frequency of single-channel data was 5 KHz with a low-pass filter (1 KHz). We used pClamp version 10.2 software (Axon Instruments) for data acquisition and analysis.”

[2] = target: T3, wild-type SUR1/Kir6.2 channels (Rattus norvegicus, UniProt P70673+Q09429); test: Inside-out patch recording of recombinant wild-type channels expressed in COS7 cells; details: SNAP 1 mM in the presence of 1 mM [ATP]i; n = 7
T3 construct: A full-length Kir cDNA and a full-length SUR cDNA were subcloned into the mammalian expression vector; expressed in transfected cells; host or cells: COS7 cells (KATP channel-deficient), pcDNA3.1(-) vectors, GFP cDNA co-transfected as a separate reporter
T3 sequence (Q09429 whole entry): as the sequence (Q09429 whole entry C717S) above, with S717C counted along it
T3 sequence (P70673 whole entry): as the sequence (P70673 whole entry) above
Procedure: as §1, §2, §3

effect on recombinant channel activity ([1]; SNAP 1 mM in the presence of 1 mM [ATP]i): significantly activated
potency in activating the channel compared with the wild-type SUR1/Kir6.2 channel ([1]; SNAP, n = 8, p < 0.02 vs. wild type): significantly less potent
effect on Kir6.2ΔC36 currents (Kir6.2ΔC36 channels): fails to activate
effect on recombinant channel activity [2]: significantly activated
Substance: S-nitroso-N-acetylpenicillamine [SNAP]
